These results are taken from patent US20210255193A1, “LYSINE REACTIVE PROBES AND USES THEREOF” (The Scripps Research Institute, priority 2017, published 2021).

Structures are written as SMILES.

What all share (assay type): binding
Assay [1] has as its target T1, interaction between SIN3A and TGIF1 (Homo sapiens, UniProt Q96ST3).
T1 construct: flag-SIN3A or the indicated Flag-SIN3A mutants (a.a. 1-400), or Flag-GFP, were co-expressed in HEK 293T cells with Myc-TGIF1 or Myc-TGIF2; expressed in transfected cells; host or cells: HEK 293T
The assay can be described thus: Co-IP experiment, anti-Myc western blot. As to conditions: anti-Myc blotting. Here is the method: (§1) Co-IP experiment for the interaction between SIN3A and TGIF1 and TGIF2. 6 cm dishes of HEK 293T cells were transfected at 40% confluency with 600 ng of FLAG-GFP, FLAG-SIN3A WT, K155W, or K155R construct, and 600 ng of MYC-TGIF1 or MYC-TGIF2 as indicated. After 48 hours, cells were lysed and enriched as described above. Following elution in 40 μL urea, 15 μL of loading buffer was added to samples. 15 μL of both input (10%) and outputs were loaded onto an SDS-PAGE gel.
(§2) Western blotting. Proteins were resolved by SDS-PAGE (3 h, 300 V) and transferred to nitrocellulose membranes (90 min, 60 V), blocked with 5% milk in TBS-T and probed with the indicated antibodies in 5% milk in TBS-T. The primary antibodies and the dilutions used are as follows: anti-Flag (Sigma Aldrich, F1804, 1:3,000), anti-Myc (Cell Signalling, 2272S, 1:5,000), anti-actin (Cell Signaling, 3700, 1:3,000) and anti-GAPDH (Santa Cruz, 32233, 1:10,000). Blots were incubated with primary antibodies overnight at 4° C. with rocking and were then washed (3×5 min, TBS-T) and incubated with secondary antibodies (LICOR, IRDye 800CW or IRDye 680LT, 1:10,000) for 1 h at ambient temperature. Blots were further washed (3×5 min, TBST) and visualized on a LICOR Odyssey Scanner. Relative band intensities were quantified using ImageJ software.
In general terms: Immunoblotting shows a protein as a band on a membrane.

Assay [2] concerns the target T2, interaction between SIN3A and TGIF1 (Homo sapiens, UniProt Q96ST3, K155R).
T2 construct: flag-SIN3A or the indicated Flag-SIN3A mutants (a.a. 1-400), or Flag-GFP, were co-expressed in HEK 293T cells with Myc-TGIF1 or Myc-TGIF2; expressed in transfected cells; host or cells: HEK 293T
In words: Co-IP experiment, anti-Myc western blot. As to conditions: K155R SIN3A. The procedure:
as §1, §2

Assay [3] addresses T3, interaction between SIN3A and TGIF2 (Homo sapiens, UniProt Q96ST3).
T3 construct: flag-SIN3A or the indicated Flag-SIN3A mutants (a.a. 1-400), or Flag-GFP, were co-expressed in HEK 293T with Myc-TGIF2; expressed in transfected cells; host or cells: HEK 293T
The assay can be described thus: Co-IP experiment, anti-Myc western blot. As to conditions: anti-Myc blotting. The procedure:
as §1, §2

Assay [4] has as its target T4, lysine residues in human cell proteomes (MDA-MB-231, Ramos, Jurkat) (Homo sapiens, UniProt Q9NVS9).
T4 construct: endogenous in cells; host or cells: MDA-MB-231, Ramos, Jurkat lysates
The assay can be described thus: isoTOP-ABPP lysine reactivity profiling (0.1 vs 1 mM probe 1). The following applies: PNPO K100; 1 mM vs 0.1 mM probe 1. Here is the method: (§3) STP-alkyne labeling and click chemistry. For concentration-dependent reactivity measurements by isoTOP-ABPP, 0.5 ml proteome aliquots were treated at ambient temperature with 1 mM STP-alkyne 1 (5 μl of 100 mM stock in DMSO) and 0.1 mM STP alkyne 1 (5 μl of 10 mM stock in DMSO), respectively. For competitive isoTOP-ABPP, after in vitro fragment treatment (detailed above), the samples were labeled for 1 h at ambient temperature with 0.1 mM STP-alkyne 1 (5 μl of 10 mM stock in DMSO). Samples were conjugated by copper-mediated azide-alkyne cycloaddition (CuAAC) to either the light (1 mM STP-alkyne or fragment treated) or heavy (0.1 mM STP-alkyne or DMSO treated) TEV tags (10 μl of 5 mM stocks in DMSO, final concentration=100 μM) using tris(2-carboxyethyl)phosphine hydrochloride
(§4) R value calculation and processing. The ratios of light and heavy MS1 peaks for each unique peptide were quantified with a CIMAGE software using default parameters (3 MS1 acquisitions per peak and signal to noise threshold set to 2.5). For reactivity measurements by isoTOP-ABPP, the R value was calculated from the ratio of MS1 peak areas, comparing the 1 mM STP alkyne sample (light TEV tag) with the 0.1 mM STP alkyne sample (heavy TEV tag). For competitive isoTOP-ABPP, the R value was calculated from the ratio of MS1 peak areas, comparing the DMSO treated sample (heavy TEV tag) with the compound treated sample (light TEV tag). […] Ratios for unique peptide entries are calculated for each experiment; overlapping peptides with the same modified lysine (for example, different charge states, MudPIT chromatographic steps or tryptic termini) are grouped together and the median ratio is reported as the final ratio (R). The peptide ratios reported by CIMAGE were further filtered to ensure the removal or correction of low-quality ratios in each individual data set. […]
(§5) Cross-data processing for reactivity profiling. For reactivity profiling, the median of biological replicates of the same condition and cell-line was calculated. For peptides containing several possible modified lysines, the lysine with the highest number of quantification events was used for analysis and the remaining, redundant peptides were reported as alternative modification sites. Peptides were required to be detected in at least one 1 mM vs 0.1 mM and one 0.1 mM vs 0.1 mM data set with the latter R value being smaller than 2.5. […] If the lysine was not detected in any soluble fraction, the R value from the membrane fraction was taken. Additionally, all membrane-only lysines with reactivity values were further required to have been detected in at least one 0.1 mM vs 0.1 mM membrane profiling experiment. […]
(§6) Here, the intrinsic reactivity of lysine residues was assessed in human cell proteomes. In brief, proteomes from three human cancer cell lines were treated (MDA-MB-231, Ramos, and Jurkat cells) with low vs high concentrations of probe 1 (0.1 vs 1 mM, n=4 per group) for 1 h and then analyzed the samples by isoTOP-ABPP, wherein high, medium, and low reactivity lysines were distinguished by their respective isotopic ratio values (R10:1<2, 2<R10:1<5, R10:1>5, respectively). […]

Assay [5] deals with lysine residues in human cell proteomes (MDA-MB-231, Ramos, Jurkat). Described as above. Here is the method:
as §3, §4, §5, §6

T3 sequence (Q96ST3 1-400): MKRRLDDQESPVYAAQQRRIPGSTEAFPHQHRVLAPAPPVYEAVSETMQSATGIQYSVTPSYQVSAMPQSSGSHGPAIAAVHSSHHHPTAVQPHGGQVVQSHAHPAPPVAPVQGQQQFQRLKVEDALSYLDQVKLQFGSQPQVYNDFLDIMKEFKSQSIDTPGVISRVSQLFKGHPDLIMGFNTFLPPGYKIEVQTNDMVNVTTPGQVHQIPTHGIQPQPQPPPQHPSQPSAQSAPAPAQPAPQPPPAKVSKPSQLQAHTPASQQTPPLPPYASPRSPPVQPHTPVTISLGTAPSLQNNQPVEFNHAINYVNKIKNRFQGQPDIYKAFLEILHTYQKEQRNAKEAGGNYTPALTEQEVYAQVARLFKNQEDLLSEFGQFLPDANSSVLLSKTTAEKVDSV
T1 sequence (Q96ST3 1-400): as above
T4 sequence (Q9NVS9 whole entry): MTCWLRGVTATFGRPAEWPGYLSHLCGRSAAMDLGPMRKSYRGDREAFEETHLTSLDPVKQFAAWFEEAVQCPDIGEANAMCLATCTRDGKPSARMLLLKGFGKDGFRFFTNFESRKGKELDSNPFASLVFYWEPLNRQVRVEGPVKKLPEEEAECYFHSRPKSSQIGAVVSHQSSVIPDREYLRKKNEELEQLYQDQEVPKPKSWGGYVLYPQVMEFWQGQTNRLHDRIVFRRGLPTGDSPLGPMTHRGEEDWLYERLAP
T2 sequence (Q96ST3 1-400 K155R): as the sequence (Q96ST3 1-400) above, with K155R counted along it

Turning to `O=C(Oc1c(F)c(F)c(F)c(F)c1F)c1cc(C(F)(F)F)cc(C(F)(F)F)c1` [fragment 21, Pentafluorophenyl 3,5-bis(trifluoromethyl)benzoate], in assay [1], the “co-immunoprecipitation of TGIF1 with SIN3A” value is reported as “blocked the co-immunoprecipitation of TGIF1”. Also, the “effect on SIN3A-TGIF1 interaction, K155R mutant” value in assay [2] was “conferred resistance to the effects of 21”. In assay [3], the “co-immunoprecipitation of TGIF2 with SIN3A” value is reported as “partial blockade”.

For the compound `C#CCCC(=O)Oc1c(F)c(F)c(S(=O)(=O)[O-])c(F)c1F.[Na+]` [probe 1, reference compound], the “R10:1 lysine reactivity ratio” value in assay [4] was determined as 0.7. The “selectivity for lysine modification over other amino acids” value in assay [5] (1 mM probe) is listed as “excellent selectivity for lysine modification over other amino acids”. In addition, in assay [5] (0.1 vs 1 mM probe 1, 1 h), the “hyper-reactive lysines (R10:1 <2), total residues” value came out at 310; the “quantified lysines with R10:1 values = 10 (low intrinsic reactivity)” value is given as over 50%; the “quantified lysines with hyper-reactivity with probe 1 (R10:1 values <2)” value is under 10%.
